The results in this text go back to patent publication US9023876B2, “Compounds and methods for regulating integrins” (Adhaere Pharmaceuticals, Inc., priority 2010, dated 2015).

Experiment [1] concerns the target T1, mutant integrin CD11bE320A/CD18 (Homo sapiens, UniProt P11215, E336A).
T1 construct: expressed in transfected cells; host or cells: K562
In words: Adhesion of K562 E320A cells to immobilized Fg. Format: cell-based. As for the experimental part:
K562 cells (ATCC) stably transfected with wild-type integrin CD11b/CD18 (K562 CD11b/CD18) have been described previously. Mutant CD11bE320A has been described previously. K562 cells stably transfected with mutant integrin CD11bE320A/CD18 (K562 E320A) were generated according to literature protocols. All cell lines were maintained in Iscove's Modified Dulbecco's Medium (IMDM) supplemented with 10% heat-inactivated fetal bovine serum, 50 IU/ml penicillin and streptomycin and 0.5 mg/ml G418.
Cell adhesion assays with immobilized ligands were performed as previously described. Assays with all different K562 cell lines (K562, K562 CD11b/CD18 and K562 E320A) were performed in an identical fashion. Briefly, 384-well Highbind microtiter plates were coated with a 30 μL solution of ligand in Phosphate Buffered Saline, pH 7.4 containing 1 mM each of Ca^2+ and Mg^2+ ions (PBS^++) overnight at 4° C. Ligand Fg was coated at a concentration of […] and iC3b at […]. Heterodimer specific mAb IB4 (ascites) was coated at a 1:100 dilution. […] Cells remaining adherent were fixed using formaldehyde and were quantitated using imaging microscopy, as previously described. […]

Experiment [2] has as its target T2, integrin CD11b/CD18 (Homo sapiens, UniProt P11215).
T2 construct: expressed in transfected cells; host or cells: K562
As to the kind of experiment: Flow cytometry, binding of activation sensitive mAb24 to K562 CD11b/CD18 cells. Format: cell-based. As for the experimental part: Flow cytometric analysis of K562 cells for integrin CD11b/CD18 cell surface expression was performed using published protocols. Briefly, cells were suspended in the assay buffer (TBS containing 1 mM each of Ca^2+ and Mg^2+ ions (TBS^++) and 0.1% BSA). […] Subsequently, the cells were washed three times with the assay buffer and incubated with goat anti-mouse-APC (1 mg/ml, Invitrogen) for 20 min at 4° C. Cells were washed twice with the assay buffer and analyzed using FACSCaliber flow cytometer (BD Biosciences, CA), counting at least 10,000 events. Data was analyzed using the CellQuest software (BD Biosciences). Assays were performed in triplicate and the data shown is from one of at least three independent experiments.
To identify binding site of LA1-3, which are predicted to bind the ligand-binding αA (or α1) domain in CD11b/CD18 [33, 39, 76], we generated K562 cells stably expressing mutant integrin CD11bE320A/CD18 (K562 E320A). The highly conserved residue E320 in the linker following the activation-sensitive α7-helix in the CD11b A-domain (αA-domain) acts as an endogenous ligand of the CD18 vWFA-domain (βA- or I-domain). The E320A mutation abolishes agonist Mn^2+-ion mediated increase in ligand-binding by CD11b/CD18. However, stabilization of αA in a high-affinity conformation by additional activating mutations overcomes this deficit and induces ligand binding in the E320A mutant. […]

Experiment [3] has as its target T2, integrin CD11b/CD18. As to the kind of experiment: K562 CD11b/CD18 cell adhesion to immobilized iC3b. The following applies: increasing amounts of compound. Format: cell-based. As for the experimental part:
Cell adhesion assays with immobilized ligands were performed as previously described. Assays with all different K562 cell lines (K562, K562 CD11b/CD18 and K562 E320A) were performed in an identical fashion. Briefly, 384-well Highbind microtiter plates were coated with a 30 μL solution of ligand in Phosphate Buffered Saline, pH 7.4 containing 1 mM each of Ca^2+ and Mg^2+ ions (PBS^++) overnight at 4° C. Ligand Fg was coated at a concentration of […] and iC3b at […]. Heterodimer specific mAb IB4 (ascites) was coated at a 1:100 dilution. Subsequently, the non-specific sites in the wells were blocked by incubation with 1% non-fat milk in Tris Buffered Saline (TBS), pH 7.4, at room temperature for 1 h, except for the neutrophil assay, where the wells were blocked with TBS containing 1% gelatin. Next, the wells were washed three times with TBS. K562 cells were suspended in the assay buffer (TBS containing 1 mM each of Ca^2+ and Mg^2+ ions (TBS^++)) and were transferred to the ligand-coated wells (30,000 cells/well). Stock solution of the leukadherin family of small molecule agonists was prepared by dissolving the compounds in DMSO at a concentration of 2-10 mM. Final concentration of DMSO in the assay was approximately 1%. […] Cells remaining adherent were fixed using formaldehyde and were quantitated using imaging microscopy, as previously described. […]

For experiment [4], the system named is WT B6 mice. In words: Thioglycollate-induced peritonitis, WT mice. In kind it is in vivo, mouse. The settings on record: vs vehicle. As for the experimental part: Thioglycollate-induced peritonitis was performed as previously described, using 8-10 week old WT B6 and CD11b^−/− B6 mice. Leukadherin agonists were administered thirty min prior to intra peritoneal (i.p.) thioglycollate (3%) injection. LA1 and LA2 ([…] of 20 mM solution in saline) were administered intra venously (i.v.). LA3 was administered i.p. (1 mL of 20 mM solution in saline). To evaluate peritoneal neutrophil recruitment, […], the peritoneal lavage was collected and the number of emigrated neutrophils was quantified using double positive cells for GR-1 and Mac-1 staining as described.
To determine the effects of LA1-3 on inflammatory responses in vivo, we monitored their effects on neutrophil recruitment upon acute thioglycollate-induced peritonitis in mice.

Experiment [5] deals with Tg(mpx::eGFP) zebrafish larvae. As to the kind of experiment: Zebrafish tailfin injury assay. In kind it is in vivo. The following applies: 4 h post injury; vehicle 34.6±4.5. As for the experimental part:
Transgenic Tg(mpx::eGFP) were maintained according to standard protocols. Tailfin injury in three days post fertilization (dpf) larvae was performed as described. Larvae were anesthetized by immersion in E3 with […] tricane, and tail was completely transected with a sterile microdissection scalpel in accordance with the approved protocols and were recovered for the indicated time points. Zebrafish larvae (3 dpf) were treated with compounds as described (Ref). Briefly, small molecule compounds were administered by immersing the larvae in a solution of the compounds in E3. The final concentration of DMSO was kept at <1%. For the assessment of the inflammatory response, injured larvae were analyzed at 4 h post-injury. For the post-wash assay, uninjured larvae incubated with the compounds in E3 for 4-8 h, washed into E3 and injured. Larvae were analyzed using a Leica DMI6000B microscope and an Hamamatsu Orca-3CCD camera using Volocity. Excitation was performed using the laser at 488 nm and the images were analyzed using Volocity. The number of fluorescent neutrophils at the site of inflammation were counted by eye in a blinded fashion. […]

Regarding `O=C(O)c1ccc(-c2ccc(/C=C3\SC(=S)N(Cc4ccccc4)C3=O)o2)cc1` [LA1], the “binding of K562 E320A to Fg” value in experiment [1] is recorded as “selectively increased”. In experiment [2], the “binding of activation sensitive mAb24 to K562 CD11b/CD18 cells” value was “increase”. Further, the “K562 CD11b/CD18 cells adhering to immobilized iC3b” value in experiment [3] is “increase binding of CD11b/CD18 to iC3b in a dose-dependent fashion”. Also, in experiment [4] (TGC-induced peritonitis), the “peritoneal neutrophil accumulation at 4 h and 12 h” value was “significantly reduced”; the “peritoneal neutrophils after 24 h” value is “comparable numbers”. The “reduction of peritoneal neutrophil accumulation” value in experiment [4] (WT mice, given 30 min prior to thioglycollate, 4 h) is 40%. For the same compound, in experiment [5], the “neutrophil accumulation in the zebrafish tailfin (number of neutrophils)” value was determined as 15.6±1.7.
